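A five-concentration, 48-hour dose response in 96-well plates underlies each endpoint, interpolated linearly between surrounding concentrations. Here, GI50 denotes the concentration required for 50% inhibition of growth.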 The source made the active and inactive calls. No stated cut-off is given here; in the data, active = GI50 up to about 1.1 µM and inactive = higher.
Columns and labels:
Assay in all cases: growth of human tumour cells (NCI), 48 h
DU-145 = test system: DU-145
ACHN = test system: ACHN
MCF7 = test system: MCF7
SK-OV-3 = test system: SK-OV-3
K562 = test system: K562
SN12C = test system: SN12C
Malme-3M = test system: Malme-3M
SK-MEL-28 = test system: SK-MEL-28
HOP-92 = test system: HOP-92
786-0 = test system: 786-0
T47D = test system: T47D
BT-549 = test system: BT-549
SF-539 = test system: SF-539
SF-295 = test system: SF-295
RPMI-8226 = test system: RPMI-8226
SNB-19 = test system: SNB-19
NCI-H23 = test system: NCI-H23
HCT-15 = test system: HCT-15
OVCAR-4 = test system: OVCAR-4

CC12CCC3c4cc(Br)c(O)c(Br)c4CCC3C1CCC2O (stereo not given) was tested, and the GI50 (DU-145) was 34.9 µM (inactive), the GI50 (ACHN) was 22.5 µM (inactive) and the GI50 (MCF7) was 27.2 µM (inactive). For the same compound, the GI50 (SK-OV-3) was 23.5 µM (inactive), the GI50 (K562) was 6.18 µM (inactive) and the GI50 (SN12C) was 19 µM (inactive). The GI50 (Malme-3M) was 14.3 µM (inactive), the GI50 (SK-MEL-28) was 17.9 µM (inactive) and the GI50 (HOP-92) was > 10 µM (inactive). The GI50 (786-0) was 18.7 µM (inactive), the GI50 (T47D) was 26.2 µM (inactive) and the GI50 (BT-549) was 16 µM (inactive). The GI50 (SF-539) was 18.5 µM (inactive) and the GI50 (SF-295) was 16.3 µM (inactive).
With COC(=O)C1C(OC(=O)C(Cl)(c2ccccc2)c2ccccc2)CC2CCC1N2C (stereo not given) the GI50 (RPMI-8226) was > 100 µM (inactive), the GI50 (DU-145) was > 100 µM (inactive) and the GI50 (ACHN) was > 100 µM (inactive). The GI50 (MCF7) was > 100 µM (inactive), the GI50 (SK-OV-3) was > 100 µM (inactive) and the GI50 (SNB-19) was > 100 µM (inactive). For the same compound, the GI50 (K562) was > 100 µM (inactive), the GI50 (SN12C) was > 100 µM (inactive) and the GI50 (Malme-3M) was > 100 µM (inactive). The GI50 (SK-MEL-28) was > 100 µM (inactive), the GI50 (786-0) was > 100 µM (inactive) and the GI50 (T47D) was > 100 µM (inactive). The GI50 (NCI-H23) was > 100 µM (inactive), the GI50 (HCT-15) was > 100 µM and the GI50 (BT-549) was > 100 µM (inactive). For the same compound, the GI50 (SF-539) was > 100 µM (inactive) and the GI50 (SF-295) was > 100 µM (inactive).
For S=C1CC(c2ccc(Cl)cc2)Sc2ccccc2N1 (stereo not given), the GI50 (RPMI-8226) was 24.3 µM (inactive), the GI50 (DU-145) was 51.4 µM (inactive) and the GI50 (ACHN) was 71.8 µM (inactive). The GI50 (MCF7) was 39.4 µM (inactive), the GI50 (SK-OV-3) was 22.5 µM (inactive) and the GI50 (SNB-19) was 27.8 µM (inactive). For the same compound, the GI50 (K562) was > 10 µM (inactive), the GI50 (SN12C) was 78.5 µM (inactive) and the GI50 (Malme-3M) was 53.2 µM (inactive). For the same compound, the GI50 (SK-MEL-28) was 25.2 µM (inactive), the GI50 (OVCAR-4) was 28.8 µM (inactive) and the GI50 (786-0) was 34 µM (inactive). The GI50 (T47D) was 40.4 µM (inactive), the GI50 (NCI-H23) was 37.2 µM (inactive) and the GI50 (HCT-15) was 90.8 µM. For the same compound, the GI50 (BT-549) was 21.1 µM (inactive) and the GI50 (SF-295) was > 100 µM (inactive).
In the case of O=C1Cc2c([nH]c3c(Br)cccc23)-c2ccccc2N1, the GI50 (RPMI-8226) is reported as 32.5 µM (inactive), the GI50 (DU-145) is reported as > 100 µM (inactive) and the GI50 (ACHN) is reported as > 100 µM (inactive). The GI50 (MCF7) was 24.6 µM (inactive), the GI50 (SK-OV-3) was 37.2 µM (inactive) and the GI50 (SNB-19) was 43.6 µM (inactive). The GI50 (K562) was 18.2 µM (inactive), the GI50 (SN12C) was 57.9 µM (inactive) and the GI50 (Malme-3M) was > 100 µM (inactive). For the same compound, the GI50 (786-0) was > 100 µM (inactive), the GI50 (T47D) was > 100 µM (inactive) and the GI50 (NCI-H23) was > 100 µM (inactive). The GI50 (HCT-15) was 25.1 µM, the GI50 (BT-549) was > 100 µM (inactive) and the GI50 (SF-539) was 49.5 µM (inactive). For the same compound, the GI50 (SF-295) was > 100 µM (inactive).
In the case of O=C1CCSCCC(=O)Nc2ccccc2N1, the GI50 (RPMI-8226) is reported as > 100 µM (inactive), the GI50 (DU-145) is reported as > 100 µM (inactive) and the GI50 (ACHN) is reported as > 100 µM (inactive). For the same compound, the GI50 (SK-OV-3) was > 100 µM (inactive), the GI50 (SNB-19) was > 100 µM (inactive) and the GI50 (K562) was > 100 µM (inactive). The GI50 (SN12C) was > 100 µM (inactive), the GI50 (Malme-3M) was > 100 µM (inactive) and the GI50 (SK-MEL-28) was > 100 µM (inactive). The GI50 (HOP-92) was > 100 µM (inactive), the GI50 (OVCAR-4) was > 100 µM (inactive) and the GI50 (786-0) was > 100 µM (inactive). The GI50 (T47D) was > 100 µM (inactive), the GI50 (NCI-H23) was > 100 µM (inactive) and the GI50 (HCT-15) was > 100 µM. For the same compound, the GI50 (BT-549) was > 100 µM (inactive), the GI50 (SF-539) was > 100 µM (inactive) and the GI50 (SF-295) was > 100 µM (inactive).
For CC1(C)OCC(C2OC(C)(C)OC2[C@H]2O[C@@]3(O)[C@H]4[C@H](C=CC[C@@H]42)[C@@H](OCc2ccccc2)[C@H](OCc2ccccc2)[C@H]3OCc2ccccc2)O1 (stereo not given in full), the GI50 (DU-145) was 61 µM (inactive), the GI50 (ACHN) was > 100 µM (inactive) and the GI50 (MCF7) was 15.2 µM (inactive). For the same compound, the GI50 (SK-OV-3) was > 100 µM (inactive), the GI50 (SNB-19) was 63.7 µM (inactive) and the GI50 (K562) was 23.9 µM (inactive). The GI50 (SN12C) was 41.2 µM (inactive), the GI50 (Malme-3M) was > 100 µM (inactive) and the GI50 (SK-MEL-28) was > 100 µM (inactive). For the same compound, the GI50 (HOP-92) was 44.2 µM (inactive), the GI50 (OVCAR-4) was 41 µM (inactive) and the GI50 (786-0) was 35 µM (inactive). For the same compound, the GI50 (T47D) was 34.2 µM (inactive), the GI50 (NCI-H23) was 28.4 µM (inactive) and the GI50 (HCT-15) was 21.9 µM. For the same compound, the GI50 (BT-549) was 72.3 µM (inactive), the GI50 (SF-539) was 27.2 µM (inactive) and the GI50 (SF-295) was > 100 µM (inactive).
For CNNC1=NS(=O)(=O)c2cc(C#N)c(Cl)cc2S1, the GI50 (RPMI-8226) was > 10 µM (inactive), the GI50 (DU-145) was > 10 µM (inactive) and the GI50 (ACHN) was > 10 µM (inactive). For the same compound, the GI50 (MCF7) was 0.00303 µM (active), the GI50 (SK-OV-3) was > 10 µM (inactive) and the GI50 (SNB-19) was > 10 µM (inactive). For the same compound, the GI50 (K562) was > 10 µM (inactive), the GI50 (SN12C) was > 10 µM (inactive) and the GI50 (Malme-3M) was > 10 µM (inactive). The GI50 (SK-MEL-28) was > 10 µM (inactive), the GI50 (OVCAR-4) was > 10 µM (inactive) and the GI50 (786-0) was > 10 µM (inactive). The GI50 (T47D) was > 10 µM (inactive), the GI50 (NCI-H23) was > 10 µM (inactive) and the GI50 (HCT-15) was > 10 µM. The GI50 (BT-549) was > 10 µM (inactive), the GI50 (SF-539) was > 10 µM (inactive) and the GI50 (SF-295) was > 10 µM (inactive).
NC(=O)c1nnc2ccc(F)cc2c1N was tested, and the GI50 (RPMI-8226) was > 100 µM (inactive), the GI50 (DU-145) was > 100 µM (inactive) and the GI50 (ACHN) was 88.9 µM (inactive). For the same compound, the GI50 (MCF7) was > 100 µM (inactive), the GI50 (SK-OV-3) was 87.5 µM (inactive) and the GI50 (SNB-19) was > 100 µM (inactive). The GI50 (K562) was > 100 µM (inactive), the GI50 (SN12C) was > 100 µM (inactive) and the GI50 (Malme-3M) was > 100 µM (inactive). The GI50 (OVCAR-4) was > 100 µM (inactive), the GI50 (786-0) was > 100 µM (inactive) and the GI50 (T47D) was > 100 µM (inactive). For the same compound, the GI50 (NCI-H23) was > 100 µM (inactive), the GI50 (HCT-15) was > 100 µM and the GI50 (BT-549) was 68.4 µM (inactive). The GI50 (SF-539) was > 100 µM (inactive) and the GI50 (SF-295) was > 100 µM (inactive).
